Test results published in patent US20130022641A1, “Anti-Tumor Agent and Immunostimulating Agent” (ORION BREWERIES, LTD., priority 2005, published 2013).

What was measured:
Type in all cases: in vivo, C57BL/6 mice
T cells = experiment: Annexin V detection of apoptosis in liver T cell fractions (control); settings: 2 μg/mouse; 24 hours after dosing
Procedure: (§1) The basic method for the experiment is the same as that of the third embodiment. C57BL/6 8th-week mice were used. […] And 2 μg/mouse of αGalcer was likewise administered. After 24 hours following the dosing, lymphocytes had been separated from the livers of the mice over time. Triple labeling immunostaining was undertaken by fluorescently-labeled monoclonal antibody based on […] anti-CD3 antibody (Pharmingen) and PE-labeled anti-NK1.1 antibody (Pharmingen) for detection of NKT cells (CD3^+NK1.1^+), and FITC labeled Annexin V (Pharmingen) for detection of apoptosis cells. The method for immunostaining was subject to that of Non-Patent Document 1. Next, PerCP and PE were detected via flow cytometric analysis (FACSCalibur, Becton-Dickinson). Based on the fluorescence intensity thereof, NKT cells fractions (areas shown in c of FIG. 13) were obtained. […] According to the embodiment, cells which caused apoptosis within the fractions were detected via measurement of fluorescence intensity of FITC in such fractions. […]
(§2) Histograms of mouse NKT cell fractions and T cell fractions of unprocessed normal mouse cells are shown (A and D). […] The fluorescence intensity of fluorescent substance C is shown on the horizontal axis and the number of cells (in units) is shown on the vertical axis for each profile. […]

GPT = experiment: Transaminase values in the serums (GPT), liver damage; settings: 2 μg/mouse, serum, normal mice about 11 IU/L
Procedure: The mice prepared in the third embodiment were used. After collecting about 1 ml of blood from each mouse over time, serums were separated. Transaminase values in the serums (GPT) were measured using of a Transaminase CII Test Wake (Wake Pure Chemical Industries, Ltd) as an extracorporeal diagnostic kit. The method for measurement was subject to the protocol attached with the kit. In addition, generally speaking, red cells of mice are easily hemolyzed. Thus. GOT values regarding which errors easily occur to results of measurements are not presented herein.
Herein, first, brief explanations are given in regards to GPT in the serums. GPT normally functions in liver cells. Due to destruction of […] caused by liver damage, such as hepatitis and the like, GPT leaks into the blood. Thus, increase of GPT values in the blood is an index of liver damage. Generally, it is understood that liver damage, such as hepatitis and the like, exists when the figures are greater than 100 IU (international unit)/L (liter).

NKT cells of the liver = experiment: Flow cytometric analysis of liver NKT cells after intraperitoneal administration; settings: 2 μg/mouse, abdominal cavity
Procedure: C57BL/6 8th-week mice were used. […] Additionally, individuals that received 2 μg/mouse were used as positive controls. After dosing, lymphocytes were separated from the livers of the mice over time. Double labeling immunostaining was undertaken with 2 types of h monoclonal antibodies. FITC-labeled anti-CD3 (Phatrningen) and PE-labeled anti-NK1.1 (Pharmingen). Thereafter, flow cytometric analysis (FACSCalibur, Becton-Dickinson) was undertaken for dynamic states of NKT cells. In addition, a method of lymphocyte separation from the livers and the immunostaining method were subject to the methods of Non-Patent Document 7.
Cytograms show fluorescence intensities for FITC-labeled anti-CD3 on the horizontal axis and PE-labeled anti-NK1.1 antibody on the vertical axis in a log scale fashion. The larger the fluorescence intensities for FITC, the greater the number of CD3 molecules on the surfaces of cells. And the larger the PE fluorescence intensities, the greater the number of NK1.1 molecules on the measured surfaces of cells. […] Additionally, numeric values within the fractions represent the percentages of cells included in such fractions relative to all measured cells.

NKT cells (CD3+NK1.1+) = experiment: Annexin V detection of apoptosis in liver NKT cell fractions; settings: 2 μg/mouse; 24 hours after dosing; normal mice peak around 10
Procedure: as §1, §2

INF-γ = experiment: Level of INF-γ in serum by ELISA; settings: 2 μg/mouse αGalcer, normal mouse about 40 μg/ml, FIG. 14
Procedure: Mice prepared in the third embodiment were used. After about 1 ml of blood had been collected from each mouse over time, serum was separated. The level of INF-γ in such serum was measured in accordance with the ELISA test. In regards to the ELISA test, a BD Opt EIA set (Pharmingen) was used, and the method was subject to the attached protocol.

## CCCCCCCCCCCCCCCCCCCCCCCCCC(=O)N[C@@H](CO[C@H]1O[C@H](CO)[C@H](O)[C@H](O)[C@H]1O)[C@H](O)[C@H](O)CCCCCCCCCCCCCC [αGalCer, a-Galactosyl ceramide]
T cells
  apoptosis induction in T cells: Apoptosis induction could not be recognized
GPT; after 12 hours
  GPT values: 116 IU/L
GPT; after 24 hours
  GPT values: 183 IU/L
NKT cells of the liver; 24 hours following administration
  NKT cells in the liver: such tendency had not changed
NKT cells of the liver; within 12 hours following dosing
  NKT cells in the liver: most NKT cells in the liver disappeared
NKT cells (CD3+NK1.1+)
  peak of Annexin V fluorescence intensity in NKT cell fraction: ~200
INF-γ
  level of INF-γ in the blood: about 3,000 μg/ml
